Test results taken from patent publication US6555055B1, “System for preventing and remediating biofilms in dental equipment” (Lynntech, Inc., priority 1998, dated 2003).

How the values were obtained:
[1] = system: established biofilm in a previously used dental unit
From the text: The experiment consisted of first re-invigorating an established biofilm in a previously used dental unit (A-Dec, a 1980 model) by running tap water, which had been determined to have a bacterial count of 10^4 cfu/mL, through the apparatus at hourly intervals between 9:00 a.m. and 4:00 p.m. for a total of 10 days. […] This limited the organisms monitored to those originating from the biofilm.
Only one bottle was used at a time, either one containing deionized water (filtered through a 0.2 micron filter), or one containing a 1% H2O2 solution (Kroger brand 3%, diluted with deionized water to a 1% solution). Every morning at 9:00 a.m., the H2O2 bottle was connected to the compressed air cylinder and the junction box (which connects the reservoir to the dental cart). The second air cylinder was directly connected to the junction box which provided air to the dental cart tools and allowed the peroxide or water solution to be misted out of the high-speed handpiece to simulate dental office use. Both air cylinders were opened, and H2O2 was run through the unit by pressurizing the bottle. A 50 mL bolus of the H2O2 solution was run through as the line to the dental cart/handpiece holds approximately 40 mL. The H2O2 bottle was then removed, and the bottle containing only water was connected into the set-up in exactly the same way. Approximately 150 mL of water were run through the unit to ensure that all of the H2O2 was rinsed out of the line. For the remainder of the day, to simulate normal operation in a dentist's office where the water is left stagnant 99% of the time, the line was flushed with 150 mL of water every hour. At 4:00 p.m., a 2 mL sample of water was collected from the high-speed handpiece into a 15 mL sterile centrifuge tube (Fisher brand). […] The plates were counted using a MANOSTAT brand colony counter after 2-3 days incubation time at 37° C., selected as the optimal growth temperature for human pathogens.
After the H2O2 treatment, 150 mL of sterile, deionized water was run through the unit at hourly intervals between the hours of 9:00 a.m. and 4:00 p.m. to simulate normal dental office operating conditions, where water is left stagnant most of the time. On day 35, the unit was treated for 4 days with 2% H2O2 in the same manner previously described. This was done to assess the effect of higher concentrations of peroxide on the biofilm.
On day 40, the peroxide treatment procedure was changed slightly. Instead of applying the 2% H2O2 solution in the morning it remained in the dental lines overnight. From 9.00 a.m. to 4 p.m. daily the unit was flushed with 150 mL of sterile water. […] At 9.00 a.m., the following morning, the sterile water flushes began again.
At the end of the day after the last flushing, a 2 mL sample of water was collected from the hand piece. […]

bacteria = conditions: cited from earlier work

OO [hydrogen peroxide]
Level demonstrated to be effective against existing biofilms [1]: 2%
Microbial load of water from the high-speed handpiece ([1]; 1% H2O2 applied in the morning, sample in the afternoon after hourly flushings, initial applications (Region II)): < 200 cfu/mL
Bacterial count of water from the handpiece ([1]; 2% H2O2 left in the lines overnight, from day 40 onwards, initial results): < 200 cfu/mL
Bacterial cell counts ([1]; 2% solution, applied in the morning, from day 35 for 4 days (Region IV)): lower bacterial cell counts than a 1% solution
Effect against a broad range of pathogens (bacteria; 3%, Juven and Pierson): quite effective
Minimum level for use in an acidic sanitizing solution (lowest concentration described as effective as a germicide) (bacteria; 21 CFR Part 178.1010 (c) (39), food utensils and food handling surfaces): ≥ 72 ppm
Concentration for bacteriostatic activity (bacteria; Juven and Pierson): 0.0005%
Onset of bactericidal activity (bacteria; Juven and Pierson): 0.0034%
Concentration required for broad bactericidal action over a short time span (minutes) (bacteria; Thomas et. al.): at least 0.1%
Concentrations suppressing bacterial growth (bacteriostatic action) (bacteria; Thomas et. al.): ≥ 0.0007%
Concentrations of biostatic control (bacteria): < 0.1%
Concentrations of efficient biocidal control (bacteria): 1%
Concentrations at which it is a potent bacteriostat (bacteria; known): less than 100 ppm
